Patent US12590066B2, “Fused-heterocyclyl-carbonohydrazonoyl dicyanide compounds and use thereof” (KOREA INSTITUTE OF SCIENCE AND TECHNOLOGY, priority 2020, dated 2026)

What was measured:
[1] = system: Tau-BiFC cells; test: Cell viability (stained nuclei count) in Tau-BiFC cells; format: cell-based; conditions: 10 μM compound, 48 hours; Forskolin-only group = 100% cell viability
Experimental: In order to select novel tau protein aggregation-inhibiting substances, tau-BiFC cell model, in which formation of tau oligomers in living cells is easily observed, was used. Tau-BiFC cells were aliquoted into a 384-well plate. On the next day, the cells were treated with each of the compounds prepared according to Examples 1 to 57 at concentrations of 1 μM, 3 μM, and 10 μM, together with Forskolin (at a treatment concentration of 30 μM), which is a compound inducing tau protein aggregation by activating tau phosphorylase PKA. After 48 hours, nuclei in the cells were stained using Hoechst (at a treatment concentration of 2 μg/mL), and BiFC fluorescence intensity was automatically measured using Operetta (PerkinElmer) to count stained nuclei in each well out of the entire well plate. The group treated only with Forskolin, which induces tau protein aggregation, was set to a reference point of a 100% tau protein-aggregated state, and the effects of the compounds were confirmed using the equation “BiFC fluorescence intensity due to compound synthesized according to embodiment of present invention/(fluorescence intensity of control group treated only with Forskolin inducing tau protein aggregation−fluorescence intensity of untreated control group)×100”. Furthermore, the degree of cytotoxicity induced by the newly synthesized compound was also measured based on the 100% cell viability of the group treated only with Forskolin as a reference, and the cytotoxicity value of each compound was calculated using the equation “(number of stained nuclei in group treated with compound/number of stained nuclei in group treated with Forskolin)×100”. Based on the treatment results, substances inhibiting intracellular tau protein aggregation were selected from a series of candidate groups showing a tau protein aggregation inhibition rate of 70% or more and cell viability of 100% at a compound treatment concentration of 10 μM or more. […]

[2] = target: T1, CYP1A2 (Homo sapiens, UniProt P05177); test: Inhibitory effect on CYP coenzyme activity, human liver microsomes; format: in vitro ADME; conditions: 10 μM compound, human liver microsomes 0.25 mg/mL, substrate phenacetin, 15 minutes
T1 construct: human liver microsomes (0.25 mg/mL); from tissue; host or cells: human liver microsomes
T1 sequence (P05177 1-516): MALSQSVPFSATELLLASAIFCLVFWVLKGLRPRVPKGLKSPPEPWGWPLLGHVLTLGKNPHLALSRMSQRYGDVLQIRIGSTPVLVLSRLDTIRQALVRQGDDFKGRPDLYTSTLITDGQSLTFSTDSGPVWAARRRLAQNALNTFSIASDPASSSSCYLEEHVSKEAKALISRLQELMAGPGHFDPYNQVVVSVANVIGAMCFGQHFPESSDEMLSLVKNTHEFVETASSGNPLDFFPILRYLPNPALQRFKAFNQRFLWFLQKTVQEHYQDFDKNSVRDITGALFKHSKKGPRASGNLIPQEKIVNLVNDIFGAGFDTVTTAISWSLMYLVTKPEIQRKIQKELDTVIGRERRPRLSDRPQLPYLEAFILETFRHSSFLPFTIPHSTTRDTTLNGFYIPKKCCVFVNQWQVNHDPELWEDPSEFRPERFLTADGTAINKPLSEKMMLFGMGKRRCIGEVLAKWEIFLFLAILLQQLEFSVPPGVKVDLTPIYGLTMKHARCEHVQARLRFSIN
Experimental: (§1) The inhibitory effects of the compounds prepared according to Examples 1 to 57 on CYP coenzyme activity were identified. Specifically, human liver microsomes (0.25 mg/mL), a 0.1 M phosphate buffer solution (pH 7.4), a substrate drug cocktail of five types of drug metabolism enzymes (50 μM phenacetin, 10 μM diclofenac, 100 μM S-mephenytoin, 5 μM dextromethorphan, and 2.5 μM midazolam), and the compound at a concentration of 0 μM or 10 μM were mixed and pre-cultured at 37° C. for 5 minutes, and then further cultured at 37° C. for 15 minutes together with an NADPH generation system solution added thereto. Thereafter, the reaction was terminated by adding an acetonitrile solution containing an internal standard material (terfenadine) and centrifuged for 5 minutes (14,000 rpm, 4° C.), and then a supernatant was injected into an LC-MS/MS system for simultaneous analysis of metabolites of the substrate drugs to thereby evaluate the inhibitory effects on drug metabolism.
(§2) Metabolites of each CYP coenzyme indicator drug generated through the reaction were analyzed using the Shimadzu Nexera XR system and TSQ Vantage (Thermo). In an HPLC column, Kinetex C18 (2.1 mm×100 mm, 2.6 μm, particle size; Phenomenex, USA) was used, and mobile phases were (A) distilled water containing 0.1% formic acid and (B) acetonitrile containing 0.1% formic acid, and a gradient program shown in Table 3 was applied thereto.
(§3) The generated metabolites were quantified using a multiple reaction monitoring (MRM) quantification mode, and Xcalibur (version 1.6.1) was used for data analysis. In order to express inhibitory effects of the novel compound prepared according to the examples of the present invention on CYP coenzyme activity, CYP coenzyme activities (%) with respect to the control group not treated with the compound are shown in Table 4 below.

[3] = target: T2, CYP2C9 (Homo sapiens, UniProt P11712); test: as above; format: in vitro ADME; conditions: 10 μM compound, human liver microsomes 0.25 mg/mL, substrate diclofenac, 15 minutes
T2 construct: human liver microsomes (0.25 mg/mL); from tissue; host or cells: human liver microsomes
Experimental: as §1, §2, §3

[4] = target: T3, CYP2D6 (Homo sapiens, UniProt P10635); test: as above; format: in vitro ADME; conditions: 10 μM compound, human liver microsomes 0.25 mg/mL, substrate dextromethorphan, 15 minutes
T3 construct: human liver microsomes (0.25 mg/mL); from tissue; host or cells: human liver microsomes
Experimental: as §1, §2, §3

[5] = target: T4, CYP3A4 (Homo sapiens, UniProt P08684); test: as above; format: in vitro ADME; conditions: 10 μM compound, human liver microsomes 0.25 mg/mL, substrate midazolam, 15 minutes
T4 construct: human liver microsomes (0.25 mg/mL); from tissue; host or cells: human liver microsomes
Experimental: as §1, §2, §3

[6] = Liver microsome stability; format: in vitro ADME; conditions: 1 μM compound, 37° C., 30 minutes, NADPH; for Dog (%) amount of substrate remaining after the reaction: dog liver microsomes 0.25 mg/mL; for Human (%) amount of substrate remaining after the reaction: human liver microsomes 0.25 mg/mL; for Mouse (%) amount of substrate remaining after the reaction: mouse liver microsomes 0.25 mg/mL; for Rat (%) amount of substrate remaining after the reaction: rat liver microsomes 0.25 mg/mL
Experimental: The stability of liver microsomes due to the compounds prepared according to Examples 1 to 57 was confirmed. Specifically, four types of liver microsomes (human, dog, rat, and mouse, each 0.25 mg/mL), a 0.1 M phosphate buffer solution (pH 7.4), and each of the compounds at a concentration of 1 μM were mixed and pre-cultured at 37° C. for 5 minutes and further cultured at 37° C. for 30 minutes together with an NADPH generation system solution added thereto. Thereafter, the reaction was terminated by adding an acetonitrile solution containing an internal standard material (chloropropamide) and centrifuged for 5 minutes (14,000 rpm, 4° C.), and then a supernatant was injected into an LC-MS/MS system for analysis of substrate drugs to thereby evaluate metabolic stability due to 8 types of compounds.
The amount of the substrate remaining after the reaction was analyzed using the Shimadzu Nexera XR system and TSQ Vantage (Thermo). In an HPLC column, Kinetex XB-C18 (2.1 mm×100 mm, particle size of 2.6 μm; Phenomenex, USA) was used, and mobile phases were (A) distilled water containing 0.1% formic acid and (B) acetonitrile containing 0.1% formic acid. Analyst software (version 1.6.3) and Xcalibur (version 1.6.1) were used for data analysis.

T4 sequence (P08684 whole entry): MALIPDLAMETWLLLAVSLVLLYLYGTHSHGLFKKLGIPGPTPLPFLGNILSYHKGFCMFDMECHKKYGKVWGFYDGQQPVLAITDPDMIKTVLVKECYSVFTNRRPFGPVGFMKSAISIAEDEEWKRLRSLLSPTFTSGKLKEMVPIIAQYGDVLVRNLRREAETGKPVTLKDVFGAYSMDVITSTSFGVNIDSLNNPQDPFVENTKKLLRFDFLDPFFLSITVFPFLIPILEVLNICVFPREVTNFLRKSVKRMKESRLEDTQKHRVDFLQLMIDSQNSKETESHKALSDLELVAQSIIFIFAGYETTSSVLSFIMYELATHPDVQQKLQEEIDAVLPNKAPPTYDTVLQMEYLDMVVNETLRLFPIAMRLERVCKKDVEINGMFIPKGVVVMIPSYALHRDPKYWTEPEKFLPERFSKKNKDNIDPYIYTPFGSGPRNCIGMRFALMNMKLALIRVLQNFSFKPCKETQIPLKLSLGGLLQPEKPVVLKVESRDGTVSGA
T2 sequence (P11712 whole entry): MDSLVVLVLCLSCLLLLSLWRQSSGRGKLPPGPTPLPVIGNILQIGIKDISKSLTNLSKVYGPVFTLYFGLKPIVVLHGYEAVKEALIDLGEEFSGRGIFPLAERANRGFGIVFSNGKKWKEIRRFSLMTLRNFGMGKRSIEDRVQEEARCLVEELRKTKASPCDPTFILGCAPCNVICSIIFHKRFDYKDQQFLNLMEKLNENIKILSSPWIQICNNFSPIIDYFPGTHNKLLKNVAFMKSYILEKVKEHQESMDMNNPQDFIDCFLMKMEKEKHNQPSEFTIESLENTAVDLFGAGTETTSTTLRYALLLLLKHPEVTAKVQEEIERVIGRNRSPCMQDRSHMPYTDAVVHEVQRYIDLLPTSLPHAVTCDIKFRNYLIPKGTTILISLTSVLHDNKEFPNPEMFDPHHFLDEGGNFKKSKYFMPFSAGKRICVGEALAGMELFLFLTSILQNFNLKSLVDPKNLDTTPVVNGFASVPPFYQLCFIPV
T3 sequence (P10635 whole entry): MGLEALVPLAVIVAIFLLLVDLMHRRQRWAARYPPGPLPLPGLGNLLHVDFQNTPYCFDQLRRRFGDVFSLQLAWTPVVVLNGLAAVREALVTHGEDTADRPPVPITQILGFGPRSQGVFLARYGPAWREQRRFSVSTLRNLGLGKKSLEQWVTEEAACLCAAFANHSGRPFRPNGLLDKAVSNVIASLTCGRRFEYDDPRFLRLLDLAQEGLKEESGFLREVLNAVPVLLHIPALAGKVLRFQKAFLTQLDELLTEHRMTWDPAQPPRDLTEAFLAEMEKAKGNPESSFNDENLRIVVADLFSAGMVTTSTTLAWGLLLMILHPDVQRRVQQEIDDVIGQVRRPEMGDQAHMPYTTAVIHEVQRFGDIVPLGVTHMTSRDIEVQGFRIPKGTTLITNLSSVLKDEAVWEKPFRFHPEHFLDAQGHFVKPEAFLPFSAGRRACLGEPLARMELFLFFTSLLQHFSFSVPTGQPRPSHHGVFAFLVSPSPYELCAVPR

| SMILES | Cell viability (% @10 μM) [1] | CYP1A2 coenzyme activity (%) with respect to control group not treated [2] | CYP2C9 coenzyme activity (%) with respect to control group not treated [3] | CYP2D6 coenzyme activity (%) with respect to control group not treated [4] | CYP3A4 coenzyme activity (%) with respect to control group not treated [5] | Dog (%) amount of substrate remaining after the reaction [6] | Human (%) amount of substrate remaining after the reaction [6] | Mouse (%) amount of substrate remaining after the reaction [6] | Rat (%) amount of substrate remaining after the reaction [6] |
| --- | --- | --- | --- | --- | --- | --- | --- | --- | --- |
| Cn1ccc2ccc(NN=C(C#N)C#N)cc2c1=O [Compound 2, (2-methyl-1-oxo-1,2-dihydroisoquinolin-7-yl)carbonohydrazonoyl dicyanide] | 57.5% | 43.5% | 77.9% | 94.3% | 89% | 2.5% | 27% | 63.4% | 88% |
| CC(C)n1ccc2ccc(NN=C(C#N)C#N)cc2c1=O [Compound 3, (2-isopropyl-1-oxo-1,2-dihydroisoquinolin-7-yl)carbonohydrazonoyl dicyanide] | 112% | 50.2% | 78.5% | >100% | >100% | 6.4% | 57.4% | 10.1% | 44.4% |
| N#CC(C#N)=NNc1cccc2c(=O)[nH]ccc12 [Compound 4, (1-oxo-1,2-dihydroisoquinolin-5-yl)carbonohydrazonoyl dicyanide] | 99.3% | 85.3% | 59.3% | 91.1% | 81.6% | >100% | >100% | >100% | 94.5% |
| Cn1ccc2c(NN=C(C#N)C#N)cccc2c1=O [Compound 5, (2-methyl-1-oxo-1,2-dihydroisoquinolin-5-yl)carbonohydrazonoyl dicyanide] | 41.4% | 70.7% | 29.1% | 93.1% | 88.6% | >100% | 98.1% | 92.9% | >100% |
| CC(C)n1ccc2c(NN=C(C#N)C#N)cccc2c1=O [Compound 6, (2-isopropyl-1-oxo-1,2-dihydroisoquinolin-5-yl)carbonohydrazonoyl dicyanide] | 118.1% | 68.3% | 8.7% | 85.4% | 81.4% | 95% | 94.2% | 87% | >100% |
| Cc1cc2c(NN=C(C#N)C#N)cccc2c(=O)n1C [Compound 7, (2,3-dimethyl-1-oxo-1,2-dihydroisoquinolin-5-yl)carbonohydrazonoyl dicyanide] | 101.9% | 33.2% | 29.8% | 86.2% | 72% | 95.7% | 96% | 93.3% | 89.7% |
| Cn1c(=O)n(C)c2cc(NN=C(C#N)C#N)c(Cl)cc21 [Compound 10, (6-chloro-1,3-dimethyl-2-oxo-2,3-dihydro-1H-benzo[d]imidazol-5-yl)carbonohydrazonoyl dicyanide] | 145.3% | 94.2% | >100% | >100% | >100% | 98.1% | >100% | 92.6% | 92.7% |
